For 15 compounds, IC50 results are on record in patent US5292884A, “Cyclic hydroxamic acids” (Biomide Investment Limited Partnership, priority 1992, dated 1994).

In the assay the target is T1, 12-lipoxygenase (Sus scrofa, UniProt P16469).
T1 construct: porcine Leukocyte cytosol in buffer; from tissue; host or cells: porcine leukocyte cytosol
T1 sequence (P16469 1-663): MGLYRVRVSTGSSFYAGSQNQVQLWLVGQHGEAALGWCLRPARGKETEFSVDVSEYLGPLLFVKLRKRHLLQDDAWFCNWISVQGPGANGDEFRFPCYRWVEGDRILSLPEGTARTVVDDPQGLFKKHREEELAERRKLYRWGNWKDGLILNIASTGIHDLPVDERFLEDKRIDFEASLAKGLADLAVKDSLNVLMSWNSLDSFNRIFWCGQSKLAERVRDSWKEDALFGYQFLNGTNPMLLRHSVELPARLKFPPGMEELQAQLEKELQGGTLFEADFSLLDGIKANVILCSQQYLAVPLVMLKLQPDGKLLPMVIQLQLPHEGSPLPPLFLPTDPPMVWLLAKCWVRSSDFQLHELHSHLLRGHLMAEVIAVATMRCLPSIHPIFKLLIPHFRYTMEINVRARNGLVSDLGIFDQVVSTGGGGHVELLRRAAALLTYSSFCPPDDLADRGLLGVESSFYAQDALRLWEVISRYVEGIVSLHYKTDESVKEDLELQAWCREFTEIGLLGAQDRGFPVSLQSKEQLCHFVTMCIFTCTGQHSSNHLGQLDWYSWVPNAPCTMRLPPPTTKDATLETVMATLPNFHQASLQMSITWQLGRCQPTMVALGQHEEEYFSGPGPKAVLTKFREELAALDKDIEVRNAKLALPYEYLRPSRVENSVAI
Briefly: 12-lipoxygenase inhibition in porcine leukocyte cytosol ([1-14C] arachidonic acid conversion to 12-HETE, TLC). The format is biochemical. The following applies: porcine leukocyte cytosol 0.075 mg/mL, pH 8.0, 5 min preincubation, 5 μM arachidonic acid, 15 min at 37° C. How it is done:
The standard assay procedure is as follows:
Compounds of the present invention were added in 3 μL of DMSO at an appropriate concentration to porcine Leukocyte cytosol in buffer (final protein concentration of 0.075 mg/mL in 0.1M HEPES, 2 mM caCl2, 1 mM MgCl2, pH=8.0) and preincubated for 5 min at 37° C. [1-^14 C] arachidonic acid was added (final concentration of 5 μM) and the reactions were incubated for 15 min at 37° C. and terminated by the addition of HCl. Total reaction volume was 100 μL. Assays also included reduced glutathione in the assay at 25 μM or following the assay at 1 mM and/or cold carrier 12-HETE and arachidonic acid added at the end of the incubation at concentrations of 5 and 100 μM, respectively. Sample was extracted with water-saturated ethyl acetate and the extracts were spotted onto TLC plates. The plates were developed with dichloromethane/ethyl acetate/acetic acid in a ratio of 70:30:1. Under these conditions, the Rf's of 12-HETE and arachidonic acid are 0.30 and 0.45 , respectively. The percentage conversion to 12-HETE was calculated from the percentage of the total ^14 C on the TLC plate that coelutes with a standard of 12-HETE.

SMILES strings stand for the structures.

Regarding `O=C1CC[C@@H](c2ccccc2)[C@H](CCCc2ccccc2)N1O` (relative stereo) [1(xx), trans-1-Hydroxy-5-phenyl-6-(3-phenylpropyl)-piperidin-2-one], inhibition was half-maximal at 1 µM (IC50).

Consider `CCCCCCCCCC[C@@H]1[C@@H](c2ccccc2)CCC(=O)N1O` (relative stereo) [1(y), trans-6-Decyl-hydroxy-5-phenyl-piperidin-2-one], for which the IC50 was found to be 0.3 µM. The compound `CCCCCCCCCCCC[C@H]1[C@H](c2ccccc2)CCC(=O)N1O` (relative stereo) [1(z), trans-6-Dodecyl-1-hydroxy-5-phenyl-piperidin-2-one] registered a concentration for half-maximal inhibition (IC50) of 0.8 µM.

For the compound `CCCCCCCC[C@@H]1C[C@H](c2ccccc2)CC(=O)N1O` (relative stereo) [Compound 1, cis-1-hydroxy-6-octyl-4-phenylpiperidin-2-one], half-maximal inhibition (IC50) was put at 0.42 µM. `CCCCCCCCCCCCC1CCC(c2ccccc2)N(O)C1=O` (single isomer, unassigned) [1(ii), 3-Dodecyl-1-hydroxy-6-phenyl-piperidin-2-one] had a half-maximal inhibitory concentration (IC50) of 2 µM. Against the preceding compound, the IC50 is about 4.8-fold higher. As to `O=C1CC(CCCc2ccccc2)C(c2ccccc2)CN1O` (single isomer, unassigned) [1(uu), 1-Hydroxy-5-phenyl-4-(3-phenylpropyl)-piperidin-2-one], half-maximal inhibition (IC50) was put at 1.7 µM. `O=C1C(CCCc2ccccc2)CC(c2ccccc2)CN1O` (stereo not drawn) [1(aaa), 1-Hydroxy-5-phenyl-3-(3-phenylpropyl)-piperidin-2-one] displayed an IC50 of 0.75 µM. To `O=C1C(Cc2cccc3ccccc23)C(c2ccccc2)CCN1O` (stereo not drawn) [1(ee), 1-Hydroxy-3-(1-naphthyl-methyl)-4-phenyl-piperidin-2-one] belongs 1 µM. The compound `O=C1CCC(CCCc2ccccc2)C(CCCc2ccccc2)N1O` (stereo not drawn) [1(fff), 1-Hydroxy-5,6-bis(3-phenyl-propyl)-piperidin-2-one] displayed an IC50 of 0.25 µM. With `O=C1C(CCCc2ccccc2)C(c2ccccc2)CCN1O` (stereo not drawn) [1(hh), 1-Hydroxy-4-phenyl-3-(3-phenylpropyl)-piperidin-2-one], inhibition was half-maximal at 1.05 µM (IC50). `O=C1CC(CCc2ccccc2)C(c2ccccc2)CN1O` (stereo not drawn) [1(qq), 1-Hydroxy-5-phenyl-4-(2-phenylethyl)-piperidin-2-one] registered a half-inhibitory concentration (IC50) of 1 µM. This IC50 and that of the compound before are within 1.5-fold of each other. To `O=C1CC(CCc2ccccc2)C(Cc2ccccc2)CN1O` (stereo not drawn) [1(rr), 5-Benzyl-1-hydroxy-4-(2-phenylethyl)-piperidin-2-one] belongs 1.6 µM. `O=C1C(c2ccccc2)C(CCCc2ccccc2)CCN1O` (stereo not drawn) [1(vv), 1-Hydroxy-3-phenyl-4-(3-phenylpropyl)-piperidin-2-one] gave an IC50 of 1 µM. To `O=C1C(c2ccccc2)CC(CCCc2ccccc2)CN1O` (stereo not drawn) [1(yy), 1-Hydroxy-3-phenyl-5-(3-phenylpropyl)-piperidin-2-one] belongs 0.52 µM. Compound `O=C1CC(c2ccccc2)C(CCCc2ccccc2)CN1O` (stereo not drawn) [1(zz), 1-Hydroxy-4-phenyl-5-(3-phenylpropyl)-piperidin-2-one] gave a concentration for half-maximal inhibition (IC50) of 1.6 µM.
